{"source": "PubChem BioAssay (NCI)", "note": "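A five-concentration, 48-hour dose response in 96-well plates underlies each endpoint, interpolated linearly between surrounding concentrations. GI50: concentration for 50% inhibition of growth. At the TGI there is no net growth.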"}
{"tested_on": "SNB-19 CNS", "assay": "NCI tumour cell line growth inhibition, 48 h", "units": {"GI50": "µM", "TGI": "µM"}}
{"compound": "Cc1cc2nc(C(Cl)Cl)nc(-c3ccc(Cl)cc3)n2n1", "GI50": 1.05, "TGI": 4.64}
{"compound": "CC1=C(C#N)C23C(=O)c4ccccc4C(O)=C2C(=O)C=CC3(O)N1Cc1ccccc1", "note": "(centres undefined)", "GI50": 40.1, "TGI": "> 100"}
{"compound": "C/C(=C\\CO)CC/C=C(\\C)CNc1c(F)c(F)c(F)c(F)c1F", "TGI": 75}
{"compound": "COC(=O)Nc1nc2ccc(S(=O)c3ccccc3)cc2[nH]1", "note": "(centres undefined)", "GI50": 6.12, "TGI": "> 100"}
{"tested_on": "SW-620 colon", "assay": "NCI tumour cell line growth inhibition, 48 h", "units": {"GI50": "µM", "TGI": "µM"}}
{"compound": "Cc1cc2nc(C(Cl)Cl)nc(-c3ccc(Cl)cc3)n2n1", "GI50": 0.433, "TGI": 2.93}
{"compound": "CC1=C(C#N)C23C(=O)c4ccccc4C(O)=C2C(=O)C=CC3(O)N1Cc1ccccc1", "note": "(centres undefined)", "GI50": 37.1, "TGI": "> 100"}
{"compound": "C/C(=C\\CO)CC/C=C(\\C)CNc1c(F)c(F)c(F)c(F)c1F", "TGI": "> 100"}
{"compound": "COC(=O)Nc1nc2ccc(S(=O)c3ccccc3)cc2[nH]1", "note": "(centres undefined)", "GI50": 3.63, "TGI": "> 100"}
{"tested_on": "OVCAR-4 ovarian", "assay": "NCI tumour cell line growth inhibition, 48 h", "units": {"GI50": "µM", "TGI": "µM"}}
{"compound": "Cc1cc2nc(C(Cl)Cl)nc(-c3ccc(Cl)cc3)n2n1", "GI50": 1.06, "TGI": 4.38}
{"compound": "CC1=C(C#N)C23C(=O)c4ccccc4C(O)=C2C(=O)C=CC3(O)N1Cc1ccccc1", "note": "(centres undefined)", "GI50": 38.6, "TGI": "> 100"}
{"compound": "C/C(=C\\CO)CC/C=C(\\C)CNc1c(F)c(F)c(F)c(F)c1F", "TGI": "> 100"}
{"compound": "COC(=O)Nc1nc2ccc(S(=O)c3ccccc3)cc2[nH]1", "note": "(centres undefined)", "GI50": 7.73, "TGI": "> 100"}
{"tested_on": "SF-539 CNS", "assay": "NCI tumour cell line growth inhibition, 48 h", "units": {"GI50": "µM", "TGI": "µM"}}
{"compound": "CC1=C(C#N)C23C(=O)c4ccccc4C(O)=C2C(=O)C=CC3(O)N1Cc1ccccc1", "note": "(centres undefined)", "GI50": 48.2, "TGI": "> 100"}
{"compound": "C/C(=C\\CO)CC/C=C(\\C)CNc1c(F)c(F)c(F)c(F)c1F", "TGI": 40.3}
{"compound": "COC(=O)Nc1nc2ccc(S(=O)c3ccccc3)cc2[nH]1", "note": "(centres undefined)", "GI50": 4.64, "TGI": 58.5}
{"tested_on": "CAKI-1 renal", "assay": "NCI tumour cell line growth inhibition, 48 h", "units": {"GI50": "µM", "TGI": "µM"}}
{"compound": "Cc1cc2nc(C(Cl)Cl)nc(-c3ccc(Cl)cc3)n2n1", "GI50": 0.798, "TGI": 4.11}
{"compound": "CC1=C(C#N)C23C(=O)c4ccccc4C(O)=C2C(=O)C=CC3(O)N1Cc1ccccc1", "note": "(centres undefined)", "GI50": 43.2, "TGI": "> 100"}
{"compound": "C/C(=C\\CO)CC/C=C(\\C)CNc1c(F)c(F)c(F)c(F)c1F", "TGI": "> 100"}
{"compound": "COC(=O)Nc1nc2ccc(S(=O)c3ccccc3)cc2[nH]1", "note": "(centres undefined)", "GI50": 4.99, "TGI": "> 100"}
{"tested_on": "SN12C renal", "assay": "NCI tumour cell line growth inhibition, 48 h", "units": {"GI50": "µM", "TGI": "µM"}}
{"compound": "Cc1cc2nc(C(Cl)Cl)nc(-c3ccc(Cl)cc3)n2n1", "GI50": 2.64, "TGI": "> 100"}
{"compound": "CC1=C(C#N)C23C(=O)c4ccccc4C(O)=C2C(=O)C=CC3(O)N1Cc1ccccc1", "note": "(centres undefined)", "GI50": 52.5, "TGI": "> 100"}
{"compound": "C/C(=C\\CO)CC/C=C(\\C)CNc1c(F)c(F)c(F)c(F)c1F", "TGI": 41.2}
{"compound": "COC(=O)Nc1nc2ccc(S(=O)c3ccccc3)cc2[nH]1", "note": "(centres undefined)", "GI50": 6.98, "TGI": "> 100"}
{"tested_on": "SK-MEL-5 melanoma", "assay": "NCI tumour cell line growth inhibition, 48 h", "units": {"GI50": "µM", "TGI": "µM"}}
{"compound": "Cc1cc2nc(C(Cl)Cl)nc(-c3ccc(Cl)cc3)n2n1", "GI50": 1.68, "TGI": 3.48}
{"compound": "CC1=C(C#N)C23C(=O)c4ccccc4C(O)=C2C(=O)C=CC3(O)N1Cc1ccccc1", "note": "(centres undefined)", "GI50": 18, "TGI": 61.5}
{"compound": "C/C(=C\\CO)CC/C=C(\\C)CNc1c(F)c(F)c(F)c(F)c1F", "TGI": 31.9}
{"compound": "COC(=O)Nc1nc2ccc(S(=O)c3ccccc3)cc2[nH]1", "note": "(centres undefined)", "GI50": 2.83, "TGI": "> 100"}
{"tested_on": "CCRF-CEM leukemia", "assay": "NCI tumour cell line growth inhibition, 48 h", "units": {"GI50": "µM", "TGI": "µM"}}
{"compound": "Cc1cc2nc(C(Cl)Cl)nc(-c3ccc(Cl)cc3)n2n1", "GI50": 2.83, "TGI": "> 100"}
